In US4885239A, “Rapid differentiation of bacteria using polyether antibiotics” (Eastman Kodak Company, priority 1986, dated 1989):

What was measured:
E. coli (gram -) = experiment: inhibition of the reduction of RIND IX (Example 7), E. coli; type: cell-based, Escherichia coli (ATCC 25922); details: about 1.7×10^-4 molar, calcium chloride, 635 nm, 30 minutes, 37° C.
Description: (§1) gram-negative bacteria Enterobacter cloacae (ATCC 23355), Escherichia coli (ATCC 25922), Proteus vulgaris (ATCC 13315), Klebsiella pneumoniae (ATCC 13883) and Pseudomonas aeruginosa (ATCC 27853), and gram-positive bacteria Staphylococcus aureus (ATCC 25923) and Streptococcus pyogenes (ATCC 19615), and brain heart infusion (BHI) broth from Difco Laboratories (Detroit, Mich.),
(§2) Bacterial suspensions were prepared by growing the cells in BHI to stationary phase overnight at 37° C. P. aeruginosa was grown with agitation. About 40 ml of overnight cultures were centrifuged, decanted and washed once with 0.05 molar potassium phosphate buffer or 0.05 molar N-2-hydroxyethylpiperazine-N'-2-ethanesulfonic acid (HEPES) buffer, pH 7.8, and resuspended in buffer.
(§3) Optical density readings (OD) were made at 635 nm at 0 minutes and after incubation at 37° C. for 30 minutes for all solutions, and the change (ΔOD) was determined. […] The corrected percent inhibition was calculated by dividing the difference between ΔOD obtained from a Control test without antibiotic and the ΔOD of the test, by the ΔOD of the Control without antibiotic. All readings were corrected by subtracting readings of the appropriate background control.
(§4) A dispersion of the RIND IX compound was prepared by dissolving the RIND compound in N,N-dimethylformamide (16 mg/ml of solvent acidified with 0.1% concentrated sulfuric acid). […]

S. aureus (gram +) = experiment: inhibition of the reduction of RIND IX (Example 7), S. aureus; type: cell-based, Staphylococcus aureus (ATCC 25923); details: Staphylococcus aureus, 0.5 h, about 1.7×10^-4 molar, calcium chloride, 635 nm, 30 minutes, 37° C., read-out: Corrected Percent Inhibition
Description: as §1, §2, §3, §4

[1] = test system: viable gram-positive and gram-negative bacteria; experiment: differentiation of viable gram-positive and gram-negative bacteria (outcome in words); type: cell-based; details: RIND IX; Example 7
Description: as §1, §2
TERGITOL 7 anionic surfactant was used to differentiate viable bacteria according to the prior art method. Various concentrations of TERGITOL 7 surfactant were mixed with a 10% glucose solution (50 μl), 3-(4,5-dimethyl-2-thiazolyl)-2,5-diphenyl-2N-tetrazolium bromide (MTT) in methanol (25 μl at 5 mg/ml) or a RIND VII dispersion (1.5 ml) and phenazine methosulfate ETA (25 μl at 3 mg/ml methanol). The volume of each test solution was brought to 3 ml with potassium phosphate buffer. A cell suspension (100 μl at about 10^8 cells/ml) was then added. The solutions were incubated at 37° C. for 15 and 30 minutes in the presence of either E. coli, a gram (-) bacterium, or S. aureus, a gram (+) bacterium. The amount of dye formed was then determined visually and graded as follows: 0 indicates no dye formation, +/- indicates faint dye formation, 1+ indicates light dye formation, 2+ indicates moderate dye formation, 3+ indicates strong dye formation, and 4+ indicates very strong dye formation.
Calimycin, a polyether antibiotic, was similarly used with RIND VII in the differentiation of bacteria. Assays were performed as described above, except that 25 μl of 1 molar calcium chloride solution was added to each test solution and the P. aeruginosa response was measured in the presence of 10% yeast extract as the carbon source instead of glucose. The final concentration of calimycin in each test was 10^-3 molar.
The test solutions were prepared by adding the following, in order: 1.2 ml HEPES, 50 μl glucose solution, 1.5 ml RIND VII dispersion, 100 μl antibiotic solution, 100 μl cell suspension and 25 μl ETA solution. Cell control solutions contained all reagents except antibiotics. Background Controls consisted of both buffer and solution controls. The buffer control contained all reagents except antibiotics and cells. The solution control contained all reagents except cells.
Optical density readings (OD) were made at 635 nm at 0 minutes and after incubation at 37° C. for 30 minutes for all solutions, and the change (ΔOD) was determined. Table V below lists the results expressed as corrected percent inhibition of the reduction of RIND VII. The corrected percent inhibition was calculated by dividing the difference between ΔOD obtained from a Control test without antibiotic and the ΔOD of the test, by the ΔOD of the Control without antibiotic. All readings were corrected by subtracting readings of the appropriate background control.
Relative fluorescence was measured using a standard spectrophotometer modified to read at excitation of 540 nm and emission of 620 nm. The change (Δ) in relative fluorescence was determined after 30 minutes at 37° C. for several concentration levels of antibiotic.
Optical density measurements were obtained at 540 nm using a standard spectrophotometer and the change in optical density (ΔOD) was determined after 30 minutes at 37° C. The resulting data are shown in Table VII below for several concentrations of antibiotic. It is clear from the data that the composition of this example was useful for differentiating bacteria. […]

## C[C@H](CCC(=O)O)C[C@H](C)C[C@H](C)C(=O)/C=C(\O)[C@H](C)C[C@H](C)C/C=C/[C@@H](C)[C@@H](O)[C@@H](C)[C@@H](O)C[C@@H]1CC[C@@](C)([C@H]2CC[C@@](C)([C@@H](C)O)O2)O1 [ionomycin]
E. coli (gram -)
  Corrected Percent Inhibition: No Inhibition
S. aureus (gram +)
  inhibition at 170 µM: 59.7%
[1]
  differentiating gram-positive and gram-negative bacteria: can be used to differentiate gram-positive and gram-negative bacteria
